Test results reported in US11576979B2, “Pyrrolobenzodiazepine prodrugs and antibody conjugates thereof” (GENENTECH, INC., priority 2016, dated 2023).

Key:
[1] = tested on: A2058; test: CellTiter-Glo toxicity, 4 days (Example 9); format: cell-based; details: Homo sapiens, A2058, 96 h, 4 days of drug incubation; Table 7A
Procedure, shortened: (§1)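 Cells were seeded in 384-well plates, dosed 24 h later and incubated with drug for 4 days. Viability was read as ATP luminescence by CellTiter-Glo and normalised to untreated controls. IC50 is the concentration giving 50% of maximum cell killing.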

[2] = tested on: UACC-257; test: CellTiter-Glo toxicity, 4 days (Example 9); format: cell-based; details: Homo sapiens, UACC-257, 96 h, 4 days of drug incubation; Table 7A
Procedure, shortened: as §1

[3] = tested on: Igrov-1; test: CellTiter-Glo toxicity, 4 days (Example 9); format: cell-based; details: Homo sapiens, IGROV-1, 96 h, 4 days of drug incubation; Table 7A
Procedure, shortened: as §1

[4] = tested on: double strand DNA Oligos 1 and 2; test: DNA oligo binding, LC/MS/UV; details: 100 uM compound, 100 uM DNA, 1 hour, 37 C
Method: For DNA binding determination, the compounds were incubated at 100 μM with 100 μM double strand DNA Oligos 1 and 2 for 1 hour in 10 mM Bis-Tris, pH 7.1 at 37° C. The single strand DNA Oligos (5′-TATAGAATCTATA-3′ and 3′-ATATCTTAGATAT-5′) were synthesized at Genentech. The samples were analyzed by LC/MS/UV (210-450 nm) on Sciex TripleTOF 5600 on a Hypersil Gold C18 column (100×2.1, 1.9 Thermo Scientific). The column was eluted at 0.4 mL/min by a gradient of buffer A (50 mM hexafluoro-isopropanol and 15 mM diisopropylethylamine) to buffer B (50% A and 50% of 1:1 methanol:acetonitrile), 5% 0-0.5 min, 5-25% B 0.5-25 min, 25-95% B 25-40 min, and to 95% B 40-42 min. The % remaining was an average of the starting DNA oligos remaining in incubations (n=2). The products were characterized by LC/MS in a negative ESI ion mode.

Compound: C=C1C[C@H]2C=Nc3cc(OC)c(OC)cc3C(=O)N2C1 [PBD monomer control 1, reference compound]
- IC50 [1]: 0.0569 µM
- IC50 [2]: 0.181 µM
- IC50 [3]: 0.0685 µM
- % DNA oligo remaining [4]: 35%
